For orientation: Ki means a measure of affinity in units of concentration, obtained from inhibition or displacement.

Where only a bound is given, the exact number is not on record here.

In US10035800B2 (AbbVie Inc., priority 2013, dated 2018) one finds Ki and EC50 data, which are given here for 24 molecules.

One test deals with T1, BRD4 (BDII_E352-M457) (Homo sapiens, UniProt O60885).
T1 construct: protocol; made in house
The test is described as follows: TR-FRET bromodomain binding assay, second bromodomain of BRD4. Conditions: TR-FRET assay protocol G (compound 0.92 μM-15 pM); 30 nM probe. In outline:
(§1)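 TR-FRET displacement of an Alexa647-labelled BET-inhibitor probe from His-tagged BRD4 BD1 or BD2 (8 nM), read via 1 nM Eu-anti-His antibody after 1 h at room temperature. Buffer was 20 mM sodium phosphate pH 6.0 with 2% DMSO. Probe was 100 nM for BDI and 30 nM for BDII. IC50 came from 4-parameter fits, and Ki from IC50, probe Kd and probe concentration.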

The target of another test is T2, BRD4 (BDI_K57-E168) (Homo sapiens, UniProt O60885).
T2 construct: BD1: amino acids K57-E168; made in house
The test is described as follows: TR-FRET bromodomain binding assay, first bromodomain of BRD4. Conditions: TR-FRET assay protocol G (compound 0.92 μM-15 pM); 100 nM probe. In outline: as §1
For orientation: Time-resolved FRET reads energy transfer from a long-lived donor to a nearby acceptor.

Test [1] concerns breast cancer cell line MX-1. The experiment in a line: MX-1 cell line proliferation assay. Type of test: cell-based. Conditions: MX-1 cells, 3-day proliferation assay, Cell Titer Glo; read-out: Cellular proliferation: EC50. How it is done:
MX-1 Cell Line Proliferation Assay
The impact of compounds of the Examples on cancer cell proliferation was determined using the breast cancer cell line MX-1 (ATCC) in a 3-day proliferation assay and the data are reported in Table 1. MX-1 cells were maintained in RPMI 1640 medium (Sigma) supplemented with 10% FBS at 37 C.° and an atmosphere of 5% CO2. For compound testing, MX-1 cells were plated in 96-well black bottom plates at a density of 5000 cells/well in 90 μL of culture media and incubated at 37° overnight to allow cell adhesion and spreading. Compound dilution series were prepared in DMSO via a 3-fold serial dilution from 3 mM to 0.1 μM. The DMSO dilution series were then diluted 1:100 in phosphate buffered saline, and 10 μL of the resulted solution were added to the appropriate wells of the MX-1 cell plate. The final compound concentrations in the wells were 3, 1, 0.3, 0.1, 0.03, 0.01, 0.003, 0.001, 0.0003, and 0.0001 μM or 1, 0.3, 0.1, 0.03, 0.01, 0.003, 0.001, 0.0003, 0.0001, and 0.00003 μM.
Luminescence readings from the Cell Titer Glo assay were normalized to the DMSO treated cells and analyzed using the GraphPad Prism software with sigmoidal curve fitting to obtain EC50s. The minimum significant ratio (MSR) was determined to evaluate assay reproducibility (Eastwood et al., (2006) J Biomol Screen, 11: 253-261). The overall MSR was determined to be 2.1 and a moving MSR (last six run MSR overtime) has been <2.
A general note: ATP-based viability assays read luminescence as a measure of living cells.

With “1-((4-(2,4-difluorophenyl)-10-methyl-7-((methylsulfonyl)methyl)-11-oxo-3,4,10,11-tetrahydro-1H-1,4,10-triazadibenzo[cd,f]azulen-3-yl)methyl)-3-phenylurea [Example 138]”, the results for the Ki at BRD4 (BDII_E352-M457) and on BRD4 (BDI_K57-E168) were 1.94 nM and 22.5 nM, respectively. Also, in test [1], the EC50 was 256 nM.
The like results for “3-(4-(2,4-difluorophenyl)-10-methyl-7-((methylsulfonyl)methyl)-11-oxo-3,4,10,11-tetrahydro-1H-1,4,10-triazadibenzo[cd,f]azulen-3-yl)propanamide [Example 99]” were, in that order, 1.66 nM, 15.5 nM and 165 nM.
Regarding “4-(1H-indazol-5-yl)-10-methyl-7-((methylsulfonyl)methyl)-3,4-dihydro-1H-1,4,10-triazadibenzo[cd,f]azulen-11(10H)-one [Example 246]”, the inhibition constant Ki at BRD4 (BDII_E352-M457) came out at 3.6 nM; at BRD4 (BDI_K57-E168), 4.32 nM. Besides, the EC50 in test [1] is 11.7 nM.
With “4-(2,4-difluorophenyl)-10-methyl-7-((methylsulfonyl)methyl)-11-oxo-3,4,10,11-tetrahydro-1H-1,4,10-triazadibenzo[cd,f]azulene-3-carboxamide [Example 141]”, the Ki at BRD4 (BDII_E352-M457) was 10.9 nM; on BRD4 (BDI_K57-E168), 20.8 nM. In test [1], the EC50 stood at 319 nM.
The like results for “4-(2-(3-(dimethylamino)propoxy)benzyl)-10-methyl-7-((methylsulfonyl)methyl)-3,4-dihydro-1H-1,4,10-triazadibenzo[cd,f]azulen-11(10H)-one [Example 260]” were, in that order, 3.4 nM, 7.26 nM and 219 nM.
For “4-(2-fluoropyridin-4-yl)-10-methyl-7-((methylsulfonyl)methyl)-3,4-dihydro-1H-1,4,10-triazadibenzo[cd,f]azulen-11(10H)-one [Example 254]” the same measures were 0.71 nM, 1.12 nM and 3.9 nM.
For “4-(4-chlorophenyl)-10-methyl-2-(1-methyl-1H-pyrazol-4-yl)-7-(methylsulfonyl)-3,4-dihydro-1H-1,4,10-triazadibenzo[cd,f]azulen-11(10H)-one [Example 271]” the same measures were 1.64 nM, 3.91 nM and 85.2 nM.
As to `CC1OCCC1N1Cc2c[nH]c3c(=O)n(C)cc(c23)-c2cc(CS(C)(=O)=O)ccc21` (stereo not shown) [Example 180, 10-methyl-7-((methylsulfonyl)methyl)-4-(2-methyltetrahydrofuran-3-yl)-3,4-dihydro-1H-1,4,10-triazadibenzo[cd,f]azulen-11(10H)-one], the results for the inhibition constant (Ki) at BRD4 (BDII_E352-M457) and on BRD4 (BDI_K57-E168) were 2.7 nM and 1.51 nM, respectively.
The like results for `CN1CCC(N2Cc3c[nH]c4c(=O)n(C)cc(c34)-c3cc(CS(C)(=O)=O)ccc32)CC1` [Example 181] were, in that order, 17.1 nM and 3.33 nM.
For `CC(C1CCOC1=O)N1Cc2c[nH]c3c(=O)n(C)cc(c23)-c2cc(CS(C)(=O)=O)ccc21` (stereo not shown) [Example 184, 10-methyl-7-((methylsulfonyl)methyl)-4-(1-(2-oxotetrahydrofuran-3-yl)ethyl)-3,4-dihydro-1H-1,4,10-triazadibenzo[cd,f]azulen-11(10H)-one] the same measures were 6.82 nM and 4.34 nM.
The like results for `CN1CCC(N2Cc3c[nH]c4c(=O)n(C)cc(c34)-c3cc(CS(C)(=O)=O)ccc32)C1` (stereo not shown) [Example 187] were, in that order, 50 nM and 5.74 nM.
`CN1CCCC(N2Cc3c[nH]c4c(=O)n(C)cc(c34)-c3cc(CS(C)(=O)=O)ccc32)CC1` (stereo not shown) [Example 189]: the results for the Ki at BRD4 (BDII_E352-M457) and on BRD4 (BDI_K57-E168) were 22.3 nM and 5.82 nM, respectively.
The like results for `Cn1cc2c3c(c[nH]c3c1=O)C(c1cc(C(C)(C)C)cc(C(C)(C)C)c1)N(c1ccc(F)cc1F)c1ccc(CS(C)(=O)=O)cc1-2` (stereo not shown) [Example 223, 3-(3,5-di-tert-butylphenyl)-4-(2,4-difluorophenyl)-10-methyl-7-((methylsulfonyl)methyl)-3,4-dihydro-1H-1,4,10-triazadibenzo[cd,f]azulen-11(10H)-one] were, in that order, more than 408 nM and more than 238 nM.
The like results for `Cn1cc2c3c(c[nH]c3c1=O)CN(Cc1ccccc1OCC(N)=O)c1ccc(CS(C)(=O)=O)cc1-2` [Example 262, 2-(2-((10-methyl-7-((methylsulfonyl)methyl)-11-oxo-10,11-dihydro-1H-1,4,10-triazadibenzo[cd,f]azulen-4(3H)-yl)methyl)phenoxy)acetamide] were, in that order, 13.2 nM and 9.37 nM.
For `CCS(=O)(=O)c1ccc2c(c1)-c1cn(C)c(=O)c3[nH]cc(c13)CN2[C@@H](C)c1ccccc1` [Example 267, (S)-7-(ethylsulfonyl)-10-methyl-4-(1-phenylethyl)-3,4-dihydro-1H-1,4,10-triazadibenzo[cd,f]azulen-11(10H)-one] the same measures were 94.7 nM and 72.7 nM.
Turning to `COC(=O)CCC1c2c[nH]c3c(=O)n(C)cc(c23)-c2cc(CS(C)(=O)=O)ccc2N1c1ccc(F)cc1F` [Example 268, (R)-methyl 3-(4-(2,4-difluorophenyl)-10-methyl-7-((methylsulfonyl)methyl)-11-oxo-3,4,10,11-tetrahydro-1H-1,4,10-triazadibenzo[cd,f]azulen-3-yl)propanoate], the Ki came to 16.4 nM on BRD4 (BDII_E352-M457) and 82.8 nM at BRD4 (BDI_K57-E168).
The like results for `Cn1cc(-c2[nH]c3c(=O)n(C)cc4c3c2CN(c2ccccn2)c2ccc(CS(C)(=O)=O)cc2-4)cn1` [Example 273, 10-methyl-2-(1-methyl-1H-pyrazol-4-yl)-7-((methylsulfonyl)methyl)-4-(pyridin-2-yl)-3,4-dihydro-1H-1,4,10-triazadibenzo[cd,f]azulen-11(10H)-one] were, in that order, 0.88 nM and 1.12 nM.
The like results for `Cn1cc(-c2[nH]c3c(=O)n(C)cc4c3c2CN(c2ccccc2)c2ccc(S(C)(=O)=O)cc2-4)cn1` [Example 274, 10-methyl-2-(1-methyl-1H-pyrazol-4-yl)-7-(methylsulfonyl)-4-phenyl-3,4-dihydro-1H-1,4,10-triazadibenzo[cd,f]azulen-11(10H)-one] were, in that order, 1.56 nM and 2.83 nM.
In the case of `Cn1cc(-c2[nH]c3c(=O)n(C)cc4c3c2CN(c2ccccn2)c2ccc(S(C)(=O)=O)cc2-4)cn1` [Example 275, 10-methyl-2-(1-methyl-1H-pyrazol-4-yl)-7-(methylsulfonyl)-4-(pyridin-2-yl)-3,4-dihydro-1H-1,4,10-triazadibenzo[cd,f]azulen-11(10H)-one], the values for the Ki at BRD4 (BDII_E352-M457) and at BRD4 (BDI_K57-E168) were 0.85 nM and 2.09 nM, respectively.
The like results for `Cn1cc(-c2[nH]c3c(=O)n(C)cc4c3c2CN(c2ccc(F)cc2)c2ccc(CS(C)(=O)=O)cc2-4)cn1` [Example 276, 4-(4-fluorophenyl)-10-methyl-2-(1-methyl-1H-pyrazol-4-yl)-7-((methylsulfonyl)methyl)-3,4-dihydro-1H-1,4,10-triazadibenzo[cd,f]azulen-11(10H)-one] were, in that order, 1.18 nM and 1.19 nM.
For “(R)—N-ethyl-7-(ethylsulfonyl)-10-methyl-11-oxo-4-(1-phenylpropyl)-3,4,10,11-tetrahydro-1H-1,4,10-triazadibenzo[cd,f]azulene-2-carboxamide [Example 272]” the same measures were 6.35 nM and 58.9 nM.
For “N-(2-chloroethyl)-10-methyl-7-((methylsulfonyl)methyl)-11-oxo-10,11-dihydro-1H-1,4,10-triazadibenzo[cd,f]azulene-4(3H)-carboxamide [Example 66]” the same measures were more than 408 nM and more than 238 nM.
Consider “N-(3-methoxypropyl)-10-methyl-7-((methylsulfonyl)methyl)-11-oxo-10,11-dihydro-1H-1,4,10-triazadibenzo[cd,f]azulene-4(3H)-carboxamide [Example 73]”, for which the Ki at BRD4 (BDII_E352-M457) came out at 19.4 nM; at BRD4 (BDI_K57-E168), 16.5 nM.
The like results for “tert-butyl 4-(3-(4-(2,4-difluorophenyl)-10-methyl-7-((methylsulfonyl)methyl)-11-oxo-3,4,10,11-tetrahydro-1H-1,4,10-triazadibenzo[cd,f]azulen-3-yl)propanamido)piperidine-1-carboxylate [Example 126]” were, in that order, 80 nM and 53.6 nM.
